Results: a melting point compilation (Tetko et al.; mined from patent text by program, amines drawn as free bases though some values may be those of a salt)

| melting point [°C] | Compound |
| --- | --- |
| 241 to 243 | COc1ccc2c(C(=O)O)cc3cc(OC)c(OC)cc3c2c1 |
| > 280 | CC(C)(C)OC(=O)c1nc(-c2ccc([N+](=O)[O-])cc2)[nH]c1-c1ccncc1 |
| 174 to 177 | O=S(=O)(c1ccc(Cl)cc1)N1CCC[C@@H](Nc2nccc(-c3c(-c4cccc(O)c4)nc4sccn34)n2)C1 |
| 83 to 84 | Cc1cn([C@H]2CC(N=[N+]=[N-])[C@@H](COC(=O)C(C)(C)CC(=O)N[C@@H](Cc3ccccc3)[C@H](O)C(=O)N3CSC[C@H]3C(=O)NC(C)(C)C)O2)c(=O)[nH]c1=O (some centres not stated) |
| 262 to 268 | CCOC(=O)c1sc2[nH]c(=O)ccc2c1Br |
| 100 to 101 | CCOC(=O)C1=C(C)N(C)C(C)=C(C(=O)OC(C)C)C1c1cccc([N+](=O)[O-])c1 (configuration not stated) |
| 115 | O=C(O)C(c1ccc2c(c1)OCO2)n1nc(-c2ccccn2)ccc1=O (configuration not stated) |
| 146 to 148 | CN(CCN(C)c1ccc(OS(=O)(=O)C(F)(F)F)nc1)c1ccc(OS(=O)(=O)C(F)(F)F)nc1 |
| 233 to 234 | O=c1nc(-c2ccnc(N3CCN(c4ccc(F)cc4)CC3)c2)sc2ccccc12 |
| 94 | CCOC(=O)c1cc2cc(CC)ccc2[nH]1 |
| 198 to 199 | CCOC(=O)c1[nH]c2c(NS(=O)(=O)c3cccs3)cccc2c1C |
| 237 to 238 | O=C(O)CCc1oc(NC2CCCCC2)nc1-c1ccc(Cl)cc1 |
| 176 to 178 | O=C(O)C(O)=CC(=O)c1cn(Cc2ccc(C(F)(F)F)cc2)c(=O)n(Cc2ccc(C(F)(F)F)cc2)c1=O |
| 192 to 193 | CCC(CC)C(NC(=O)c1ccc(Cl)cc1)NC(=C[N+](=O)[O-])Nc1cccnc1 (configuration not stated) |
| 164 to 165 | Cn1ccnc1N1CCN(CC(=O)c2ccc(NS(C)(=O)=O)cc2)CC1 |
| 76 to 80 | COC[C@H]1CN(C2=Nc3ccccc3Nc3sc(C)cc32)CCN1C |
| 93 to 97 | Clc1cccc(CC[C@H]2CNCCN2)c1 |
| 243 to 245 | CCOc1cc2cc(C(=O)O)sc2cc1OCC |
| 241 to 243 | O=C1CC2(c3ccccc3)CCCC=C2C(=O)N1 (configuration not stated) |
| 101 to 103 | O=C1NC[C@@H](C(=O)NCCO[N+](=O)[O-])O1 |
| 71 to 72 | CC1CC2(CC(C)(C)C1=O)OC(C)C(C)O2 (configuration not stated) |
| 93 to 95 | CCn1nc(C(C)(C)C)cc1C(=O)Nc1ccc(F)c(C(=O)N(C)C)c1 |
| 182 to 184 | NC(=O)c1ncn2c1NCC=C2c1cccc(Cl)c1 |

| melting point [°C] | Compound |
| --- | --- |
| 201 to 203 | CCOc1cc2cc3c(Nc4cc(OC)c(Cl)cc4C)c(C#N)cnc3cc2cc1OCCN1CCOCC1 |
| > 260 | CC(=O)Nc1ccc(S(=O)(=O)Nc2cccc3[nH]ccc23)cc1 |
| 192 to 195 | CC(C)(CCP(=O)(O)O)c1ccc(O)cc1 |
| 156 to 158 | CCCOc1ccccc1-c1nc2cc(SC)ccc2c(=O)[nH]1 |
| 172 to 173 | COc1ccc(C(=O)c2c(N)sc(C)c2C)cc1OC |
| 160 | CC(=O)OC1C(Oc2cc(C)cc(O)c2C(=O)CCc2ccc3occc3c2)OC(CO)C(O)C1O (configuration not stated) |
| 98 to 100 | O=C1c2c(Cl)cccc2OCN1CCO[N+](=O)[O-] |
| 65 | COC(=O)[C@H](CCCCNC(=O)c1ccc(C(=O)c2ccccc2)cc1)n1c2ccccc2c2ccccc21 |
| 191 to 192 | Cc1nnc(-c2ccc3occ(-c4ccc(S(=O)(=O)CF)cc4)c3c2)o1 |
| 66 to 68 | COC(=O)c1cc(F)c(C(F)(F)F)cc1[N+](=O)[O-] |
| 148 to 151 | Cc1nc2ccc3c(c2o1)OC(CN1CCC(O)(c2cccc(C(F)(F)F)c2)CC1)CO3 (configuration not stated) |
| 200 to 202 | CC1(C)Sc2cc(Cl)ccc2C2=NN(C(=O)Nc3ccc(C(F)(F)F)cc3)CC21 (configuration not stated) |
| 197 to 198 | CC(C)(Cc1ccccc1)C(NC(=O)c1cc(Cl)cc(Cl)c1)Nc1c(Nc2cccnc2)c(=O)c1=O (configuration not stated) |
| 110 | Oc1ccc(Cl)cc1C1(O)CCCCC1 |
| 58.5 to 59.5 | C#CCOC[C@@H](NC(C)=O)C(=O)OC |
| 210 to 215 | O=c1[nH]nc(-c2cccc(C(F)(F)F)c2)c2ncccc12 |
| 129 to 130 | CCOC(=O)c1c(NCC(=O)OCCCC(=O)c2ccccc2)c2c(Cl)cc(Cl)cc2n1C(=O)OC(C)(C)C |
| > 250 | Cc1nc(-c2cn(-c3cc(C(F)(F)F)cc(-c4ccc(C(F)(F)F)cc4)n3)cn2)sc1S(=O)(=O)NC(C)(C)C |
| 132 to 134 | CCn1cc(-c2ccc3nnn(Cc4ccc5ncccc5c4)c3n2)cn1 |
| 188 to 191 | CCOC(=O)NNC(=O)NC1c2ccccc2Oc2ccccc21 |
| 120 to 125 | O=c1c2c(N3CCNCC3)cc(Cl)cc2n(Cc2ccccc2)c(=O)n1Cc1ccccc1Cl |
| 37 to 38 | OC/C=C/CC/C=C/CC/C=C/CO |
| 256 | COc1ccc2nc(C(F)(F)F)c(C(=O)O)c(O)c2c1 |

| melting point [°C] | Compound |
| --- | --- |
| 163 to 165 | CCn1nnnc1C(C=CC=O)=C(c1ccc(F)cc1)c1ccc(F)cc1 |
| 62 to 68 | CC(C)CCn1c(=O)c2c(N3CCN(C)CC3)cc(Cl)cc2n(Cc2ccccc2)c1=O |
| 194 to 195 | CCCCCCCCCCc1c(C)c(C)c(-c2n[nH]c3cc(C(C)(C)C)nn23)c(C)c1C |
| 131 to 133 | CCc1cc(C)c2c(-c3cccc(Cl)c3)cc(=S)n(C)c2n1 |
| 118 | N#CC(NC(=O)C(F)(F)C(F)(F)F)c1ccc(Cl)cc1 (configuration not stated) |
| 202 to 203 | CCCc1ccc(S(=O)(=O)Nc2ccc3ncncc3c2)cc1 |
| 98 to 99 | CCOc1nc2cccc(C(Br)Br)c2c(=O)o1 |
| 224 to 226 | COc1ccc2c(c1)C1=C(SCC3(CCNCC3)O1)C(=O)C2=O |
| 144 to 145 | CCC(C)(C)c1ccc(OCCCC(=O)Nc2ccc(Cl)c(NC(=O)CC(=O)C(C)(C)Sc3ccccc3)c2)c(C(C)(C)CC)c1 |
| 124 to 126 | CC(C)(CC(O)(C(=O)Nc1ccccc1)C(F)(F)F)c1cc(F)ccc1O (configuration not stated) |
| 155 to 157 | Cc1ccc(-c2cn(C)cc(-c3cccc(C)c3)c2=O)cc1 |
| 205 to 206 | O=C(c1ccc(Cl)cc1)c1ccc(Cc2c(Cl)cc(N3N=CCNC3=O)cc2Cl)cc1 |
| 119 to 120 | O=C1c2cccc(Br)c2CN1Cc1cccc(C(F)(F)F)c1 |
| 88 | Cc1ccc(S(=O)(=O)OCCN(c2ccc(OC(F)(F)F)cc2)S(=O)(=O)c2ccc(C)cc2)cc1 |
| 227 to 228 | CC(=O)Nc1c(C(=O)c2ccco2)[nH]c2cc(Cl)ccc12 |
| 168 to 170 | CC(=O)NC(C(=O)NCc1ccncc1)c1ccco1 (configuration not stated) |
| 158 to 160 | Fc1cccc(Cl)c1COc1cc(Cl)cnc1NC(=S)Nc1ccc(Cl)cc1 |
| 98 to 100 | C=C=CS(=O)(=O)c1ncn(C(=O)N(CC)CC)n1 |
| 108 to 109 | CCOc1nc2cccc(C(=O)OC(C)OC(=O)OC3CCCCC3)c2n1Cc1ccc(-c2ccccc2-c2nc(=O)o[nH]2)cc1 (configuration not stated) |
| 214 to 216 | COC(=O)C1C(=O)Nc2cccc(C(F)(F)F)c2CC1c1ccc(OC)cc1 (configuration not stated) |
| 250 to 253 | Nc1ccn(/C=C2/CC2(CO)CO)c(=O)n1 |
| 72 to 73 | CC(C)CCCC(C)CC(=O)Oc1ccc(-c2ccc(OC(=O)CC(C)CCCC(C)C)cc2)cc1 (configuration not stated) |
| 48 to 50 | COC(=O)c1cc(I)ccc1OC |

| melting point [°C] | Compound |
| --- | --- |
| 135 to 137 | N=C(N)NCc1ccc(N)c(I)c1 |
| 171 to 172 | CCC(=O)Nc1c(C(=O)c2cc(CO)co2)[nH]c2cc(Cl)ccc12 |
| 81.5 to 82.5 | O=C1c2ccccc2C(=O)N1CCCSc1ncccn1 |
| 41 to 43 | CC(C)OC(=O)c1cc(N=C=O)c(F)cc1Cl |
| 159 to 160 | O=S(=O)(C(=CNc1ccccn1)c1ccccc1)c1ccccc1 |
| 88 to 90 | CC1CCN(c2cc(F)cc(C(=O)Nc3ccc(Oc4ccnc(NC5CCCC5)n4)c4ccccc34)c2)CC1 |
| > 260 | O=C1CCC(N2Cc3c(CNC(=S)NC4CCCCC4)cccc3C2=O)C(=O)N1 (configuration not stated) |
| 133 to 134 | CN1C2=CC=CN(CCc3ccc(OCc4ccccc4)cc3)C2=Nc2ccccc2S1(=O)=O |
| 143 to 144 | CCOC(=O)C(NC(=O)OC(C)(C)C)c1csc(N)n1 (configuration not stated) |
| 140 to 141 | CCOC(=O)c1sc(S(C)(=O)=O)c2c1CCc1cnn(C)c1-2 |
| 74 to 76 | CCOC(=O)c1nc(-c2ccc(OC)cc2)oc1C |
| 63 to 71 | CCCC(c1ccc(C#N)cc1)n1ccnc1 (configuration not stated) |
| 141 to 144 | O=S(=O)(c1ccccc1)c1ccc2cc[nH]c2c1 |
| 86 | c1ccc(CN(c2ccccc2)c2ccccc2)cc1 |
| 169 to 172 | COc1nc2ccc(Br)cc2cc1C#N |
| 146 to 147 | C=C1CCCCCCCSC[C@@H](C(=O)OCC)NC1=O |
| 88 to 90 | CN(C)C(=Nc1ccccc1N1CCOCC1)N1CCCCC1 |
| 118 to 120 | O=[N+]([O-])CS(=O)(=O)c1ccc(Oc2ccccc2)cc1 |
| 173 to 175 | CCOC(=O)C1=C(C)Nc2ccnc(OC(C)C)c2C1c1cccc(C(F)(F)F)c1Cl (configuration not stated) |
| 118 to 119 | N#Cc1ccc(CN2CCc3ccc(C(=O)CCCC4CCN(Cc5ccccc5Cl)CC4)cc3CC2)cc1 |
| 64 to 66 | Cc1cc(F)ccc1-c1ccc(S(=O)(=O)N2c3ccccc3CC2C(=O)NCc2ccccc2[N+](=O)[O-])cc1 (configuration not stated) |
| 87 to 89 | C1=Cc2cc(C=C(c3ccc4c(c3)C=C4)c3ccc4c(c3)C=C4)ccc21 |

| Compound | melting point [°C] |
| --- | --- |
| COc1ccc(C#Cc2ccc(OC3CN4CCC3CC4)nn2)cc1 (configuration not stated) | 163 to 165 |
| COc1ccc(OC)c2c1c(C(=O)C(=O)NC1=CC(=O)OC1)cn2Cc1ccc(Cl)cc1 | 212 to 215 |
| N#Cc1nn(-c2c(Cl)cc(C(F)(F)F)cc2Cl)c(I)c1SC(F)(F)F | 187 to 188 |
| COc1ccc(CCc2cc3c(s2)-n2c(C)nnc2CN=C3c2ccccc2Cl)cc1 | 100 to 105 |
| CNC(=O)Oc1ccc(N=Cc2ccccc2O)c(C)c1 | 156 to 157 |
| COc1ccc2c(c1)c(C1CCN(Cc3ccc(OC)c(C(=O)O)c3)CC1)cn2CCc1ccsc1 | 229 to 230 |
